Experimental data as given in ChEMBL document CHEMBL2375234, “Rhazinilam-Leuconolam-Leuconoxine Alkaloids from Leuconotis griffithii” (J Nat Prod, 2013).
≈ marks a conversion by molar mass, not a printed value.

Assays:
KB = test: Cytotoxicity against human KB cells; type: functional, cell-based
[1] = Inhibition of p-gp in multidrug-resistant human KB cells assessed as increase in vincristine-mediated cytotoxicity; type: cell-based

SMILES | IC50 (KB) [µg/mL] | IC50 [1] [µg/mL]
CC[C@@]12CCC(=O)Nc3ccccc3-c3ccn(c31)C(=O)C2 [NOR-RHAZINICINE] | 12 (≈ 40.8 µM) | –
CC[C@@]12CCCN3CC[C@H]4c5ccccc5N(C(=O)CC1)C432 (some centres undefined) | 12 (≈ 40.5 µM) | –
CC[C@@]12CCCN3CC[C@@]4(O)c5ccccc5N(C(=O)CC1)C324 (some centres undefined) | – | 9.34 (≈ 29.9 µM)
CC[C@@]12CCCN3C(=O)C[C@@]4(O)c5ccccc5N(C(=O)CC1)C324 (some centres undefined) | 12 (≈ 36.8 µM) | –
